Results taken from US20180104361A1, “DYE MOLECULE AND DYE PREPARATIONS, IN PARTICULAR FOR USE IN SURGICAL METHODS OF OPHTHALMIC SURGERY AND FOR DYEING PROTEINS” (AL.CHI.MI.A. S.R.L., priority 2015, published 2018).

Legend:
[1] = target: T1, egg white albumin (Gallus gallus, UniProt P01012); experiment: Affinity test by circular dichroism (CD) titration with albumin; format: binding; conditions: dye preparation in Ficoll 4% in a phosphate buffer (sterilised)
T1 construct: from tissue; host or cells: egg white
T1 sequence (P01012 1-386): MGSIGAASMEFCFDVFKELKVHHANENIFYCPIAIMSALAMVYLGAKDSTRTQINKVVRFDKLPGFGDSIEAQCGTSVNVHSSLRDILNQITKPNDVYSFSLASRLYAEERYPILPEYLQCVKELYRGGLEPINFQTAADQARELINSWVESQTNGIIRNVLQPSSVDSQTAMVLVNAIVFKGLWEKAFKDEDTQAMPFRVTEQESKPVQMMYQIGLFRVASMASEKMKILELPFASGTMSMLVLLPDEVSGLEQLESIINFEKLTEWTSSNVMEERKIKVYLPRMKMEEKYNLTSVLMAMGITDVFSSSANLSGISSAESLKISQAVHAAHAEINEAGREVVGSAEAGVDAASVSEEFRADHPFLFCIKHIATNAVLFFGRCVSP
Description: In fact, even in this sector, one of the most used dyes today is BBG. However, the Applicant has realised that although it can dye proteins, BBG actually has a relatively low affinity with the self-same proteins. […] It should be noticed that, to carry out the tests, the commercial BBG with a purity of 80% was preliminarily purified and the CD spectra were measured in the 800-400 nm region in the presence of increasing quantities of albumin. Finally, in the known way, the value of the association constant was determined using a non-linear regression of the intensity of the dichroic signal expressed in ΔA (AL-AR, where AL and AR respectively indicate the absorbency of the preparation as regards the two circularly polarized light waves used for the circular dichroism study, the left wave and the right wave) depending on the concentration of the egg white albumin, used as a reference. However, on this point what is indicated in the subsequent Affinity Tests section should also be considered. […]
Affinity was determined by means of CD (circular dichroism) spectroscopy. The CD spectra were measured in the 800-400 nm region in the presence of increasing quantities of egg white albumin which, as is known, for analyses of this type is commonly considered to be representative of proteins in general. […]

[2] = equal to 0.03% w/v; DIN EN ISO 10993; cited from earlier work

- association constant Ka [1]: approximately 60,000 M^−1
Compound: CCOc1ccc(Nc2ccc(/C(=C3C=C/C(=[N+](/CC)Cc4cccc(S(=O)(=O)[O-])c4)C=C/3C)c3ccc(N(CC)Cc4cccc(S(=O)(=O)O)c4)cc3C)cc2)cc1 [BBG-250, Brilliant Blue G 250]
- concentration at which considered not to be cytotoxic [2]: ≤ 0.3 g/I
